Assay results published in patent publication US10206937B2, “Boronic acid derivatives and therapeutic uses thereof” (Qpex Biopharma, Inc., priority 2014, dated 2019).
Values after ≈ are worked out from the molar mass of the structure shown. Read-outs that look alike come from different tables or passages of the source.

What was measured:
[1] = target: T1, purified class A, C and D enzymes (UniProt Q9F663); format: biochemical; conditions: read-out: Ki (KPC-2, NCF); purified KPC-2; nitrocefin reporter substrate
T1 construct: rows headed: Ki (KPC-2, NCF); other: purified KPC-2; nitrocefin reporter substrate

ECM6711 (pUCP24-VIM-1) = format: cell-based, E. coli
ECM6703 (pUCP24-NDM-1) = format: cell-based, E. coli
NDM-1 [2] = target: T2, NDM-1 (Klebsiella pneumoniae, UniProt C7C422); test: Inhibition of purified class B carbapenemase NDM-1 (Ki, imipenem substrate); format: biochemical
VIM-1 = target: T3, VIM-1 (Pseudomonas aeruginosa, UniProt A0A0F7KYQ8); test: biochemical; conditions: cleavage of nitrocefin (200 uM) by VIM-1 supernatant
T3 construct: made in house; host or cells: ECM6711 strain carrying pUCP24-VIM-1 plasmid; culture supernatant used unpurified

NDM-1 [3] = target: T2, NDM-1; test: biochemical
[4] = test system: clinical isolates expressing class A, B and D carbapenemases; test: Carbapenem potentiation by Compound 1, whole panel of clinical isolates (MIC); format: cell-based; conditions: Compound 1 at fixed 5 μg/ml in the growth media; all the strains
Text: The results are present in Table 8.

KP1014 (VIM-1) = test: Carbapenem potentiation against clinical isolate (MIC); format: cell-based, Klebsiella pneumoniae; conditions: antibiotic alone
AB1144 (NDM-1) = test: as above; format: cell-based, Acinetobacter baumannii
[5] = test system: KP1064 (KPC-2, SHV-11, TEM-1); test: as above; format: cell-based, Klebsiella pneumoniae; conditions: antibiotic alone
[6] = test system: KP1086 (TEM, SHV, CTX-M-15, OXA-48); test: as above; format: cell-based, Klebsiella pneumoniae; conditions: antibiotic alone
[7] = test system: EC1064 (NDM-1, CMY-6, CTX-M-15); test: as above; format: cell-based, Escherichia coli; conditions: antibiotic alone
[8] = test system: KP1087 (KPC-2, CTX-M-15, SHV-11, TEM-1); test: as above; format: cell-based; conditions: antibiotic alone
[9] = test system: strains of Enterobacteriaceae overexpressing various carbapenemases (class A and B); test: organism not typed; format: cell-based
Text: Several strains simultaneously expressing both class A and class B carbapenemases, which were constructed using conjugation, were also included in the panel.

KP1054 (VIM-1, SHV-11) = test: Carbapenem potentiation against clinical isolate (MIC); format: cell-based, Klebsiella pneumoniae; conditions: antibiotic alone
[10] = test system: KP1081 (NDM-1, TEM-1, SHV-11, CMY-6, CTX-M-15); test: as above; format: cell-based; conditions: antibiotic alone
EA1019 (SHV-5, VIM-1) = test: as above; format: cell-based, Enterobacter aerogenes
[11] = test system: KP1084 (KPC-3, SHV-11, TEM-1); test: as above; format: cell-based, Klebsiella pneumoniae; conditions: antibiotic alone
[12] = test system: KP1074 (KPC-3, SHV-11, TEM); test: as above; format: cell-based, Klebsiella pneumoniae; conditions: antibiotic alone
ECM6704 (pUCP24) = test: microbe, parasite or virus in culture; format: cell-based, E. coli; conditions: Escherichia coli, read-out: Imipenem MIC Alone
[13] = test system: KP1004 (KPC-2, TEM-1, SHV-11); test: Carbapenem potentiation against clinical isolate (MIC); format: cell-based, Klebsiella pneumoniae; conditions: antibiotic alone

T2 sequence (C7C422 29-270, looked up, species assumed): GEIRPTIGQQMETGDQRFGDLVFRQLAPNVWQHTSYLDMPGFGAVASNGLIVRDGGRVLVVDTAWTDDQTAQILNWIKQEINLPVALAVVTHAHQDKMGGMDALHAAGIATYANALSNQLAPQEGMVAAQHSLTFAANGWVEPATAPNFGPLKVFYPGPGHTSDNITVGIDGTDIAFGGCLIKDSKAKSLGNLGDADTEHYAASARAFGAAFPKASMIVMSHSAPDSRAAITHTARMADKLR

## O=C(O)c1cccc2c1OB(O)[C@@H](Sc1nncs1)C2 [Compound 1, (R)-3-(1,3,4-thiadiazol-2-ylthio)-2-hydroxy-3,4-dihydro-2H-benzo[e][1,2]oxaborinine-8-carboxylic acid]
[1]
  Ki: 0.1 to 1 µM
ECM6711 (pUCP24-VIM-1); VIM-1 producing strain, Compound 1 at fixed 4 μg/ml or 8 μg/ml
  imipenem MIC in the presence of Compound 1: decreased to the level of the strain containing empty vector
ECM6703 (pUCP24-NDM-1); NDM-1 producing strain, Compound 1 at fixed 4 μg/ml or 8 μg/ml
  imipenem MIC in the presence of Compound 1: decreased to the level of the strain containing empty vector
NDM-1 [2]
  Ki: 0.01 to 0.1 µM
VIM-1
  IC50: < 1 µM
NDM-1 [3]; Ki, Imipenem
  Ki: 0.01 to 0.1 µM
NDM-1 [3]; cleavage of biapenem (100 uM) by NDM-1, read-out: Ki, Biapenem
  Ki: 0.01 to 0.1 µM
NDM-1 [3]; cleavage of meropenem (100 uM) by NDM-1, read-out: Ki, Meropenem
  Ki: 0.01 to 0.1 µM
NDM-1 [3]; cleavage of tebipenem (100 uM) by NDM-1, read-out: Ki, Tebipenem
  Ki: > 0.1 µM
[4]
  carbapenem MIC (biapenem, doripenem, imipenem, meropenem): significantly reduced

## C[C@@H](O)[C@H]1C(=O)N2C(C(=O)O)=C(SCCN=CN)C[C@H]12 [Imipenem]
ECM6711 (pUCP24-VIM-1)
  Imipenem MIC Alone: Y (key: X: MIC of less than 1.0 μg/mL; Y: MIC of 1.0 μ/mL or above)
KP1014 (VIM-1)
  Carbapenem MIC Alone: Z (MIC of greater than 10 μg/mL)
AB1144 (NDM-1)
  Carbapenem MIC Alone: Z (key: X: MIC of less than 1 μg/mL; Y: MIC of 1 μg/mL to 10 μg/mL; Z: MIC of greater than 10 μg/mL)
[5]
  Carbapenem MIC Alone: Z (MIC of greater than 10 μg/mL)
ECM6703 (pUCP24-NDM-1)
  Imipenem MIC Alone: Y (key: X: MIC of less than 1.0 μg/mL; Y: MIC of 1.0 μ/mL or above)
[6]
  Carbapenem MIC Alone: Z (MIC of greater than 10 μg/mL)
[7]
  Carbapenem MIC Alone: Z (MIC of greater than 10 μg/mL)
[8]
  Carbapenem MIC Alone: Y (MIC of 1 μg/mL to 10 μg/mL)
[9]
  MIC: 1 to 10 µg/mL (≈ 3.34 to 33.4 µM)
[9]; Klebsiella aerogenes
  MIC: > 10 µg/mL
KP1054 (VIM-1, SHV-11)
  Carbapenem MIC Alone: Y (MIC of 1 μg/mL to 10 μg/mL)
[10]
  Carbapenem MIC Alone: Z (MIC of greater than 10 μg/mL)
EA1019 (SHV-5, VIM-1)
  Carbapenem MIC Alone: Z (key: X: MIC of less than 1 μg/mL; Y: MIC of 1 μg/mL to 10 μg/mL; Z: MIC of greater than 10 μg/mL)
[11]
  Carbapenem MIC Alone: Z (MIC of greater than 10 μg/mL)
[12]
  Carbapenem MIC Alone: Z (MIC of greater than 10 μg/mL)
ECM6704 (pUCP24)
  MIC: < 1 µg/mL
[13]
  Carbapenem MIC Alone: Z (MIC of greater than 10 μg/mL)

## C[C@@H](O)[C@H]1C(=O)N2C(C(=O)O)=C(S[C@@H]3CN[C@H](C(=O)N(C)C)C3)[C@H](C)[C@H]12 [Meropenem, reference compound]
KP1014 (VIM-1)
  Carbapenem MIC Alone: Y (MIC of 1 μg/mL to 10 μg/mL)
AB1144 (NDM-1); AB1144, antibiotic alone
  Carbapenem MIC Alone: Z (MIC of greater than 10 μg/mL)
[5]
  Carbapenem MIC Alone: Z (MIC of greater than 10 μg/mL)
[6]
  Carbapenem MIC Alone: Z (MIC of greater than 10 μg/mL)
[7]
  Carbapenem MIC Alone: Z (MIC of greater than 10 μg/mL)
[8]
  Carbapenem MIC Alone: Z (MIC of greater than 10 μg/mL)
[9]; Enterobacter cloacae, strain ECL1026, Enterobacter cloacae (KPC), carbapenem alone or + Compound 14 at fixed 4 μg/ml, read-out: MIC
  MIC: 1 to 10 µg/mL
[9]; Enterobacter cloacae, strain ECL1036, Enterobacter cloacae (KPC), carbapenem alone or + Compound 14 at fixed 4 μg/ml, read-out: MIC
  MIC: 1 to 10 µg/mL
[9]; Enterobacter cloacae, strain ECL1045, Enterobacter cloacae (VIM-1), carbapenem alone or + Compound 14 at fixed 4 μg/ml, read-out: MIC
  MIC: 1 to 10 µg/mL
[9]; Enterobacter cloacae, strain ECL1055, Enterobacter cloacae (KPC), carbapenem alone or + Compound 14 at fixed 4 μg/ml, read-out: MIC
  MIC: 1 to 10 µg/mL
[9]; Enterobacter cloacae, strain ECL1057, Enterobacter cloacae (NDM-1, TEM-1, CTX-M-15), carbapenem alone or + Compound 14 at fixed 4 μg/ml, read-out: MIC
  MIC: > 10 µg/mL
[9]; Enterobacter cloacae, strain ECL1082, Enterobacter cloacae (VIM-1), carbapenem alone or + Compound 14 at fixed 4 μg/ml, read-out: MIC
  MIC: 1 to 10 µg/mL
[9]; Enterobacter cloacae, strain ECLM1013, Enterobacter cloacae (NDM, KPC), carbapenem alone or + Compound 14 at fixed 4 μg/ml, read-out: MIC
  MIC: > 10 µg/mL
[9]; Enterobacter cloacae, strain ECLM1014, Enterobacter cloacae (NDM, KPC), carbapenem alone or + Compound 14 at fixed 4 μg/ml, read-out: MIC
  MIC: > 10 µg/mL
[9]; Enterobacter cloacae, strain ECLM1015, Enterobacter cloacae (NDM, KPC), carbapenem alone or + Compound 14 at fixed 4 μg/ml, read-out: MIC
  MIC: > 10 µg/mL
[9]; Enterobacter cloacae, strain ECLM1016, Enterobacter cloacae (NDM, KPC), carbapenem alone or + Compound 14 at fixed 4 μg/ml, read-out: MIC
  MIC: > 10 µg/mL
[9]; Enterobacter cloacae, strain ECLM1017, Enterobacter cloacae (VIM, KPC), carbapenem alone or + Compound 14 at fixed 4 μg/ml, read-out: MIC
  MIC: > 10 µg/mL
[9]; Enterobacter cloacae, strain ECLM1018, Enterobacter cloacae (VIM, KPC), carbapenem alone or + Compound 14 at fixed 4 μg/ml, read-out: MIC
  MIC: > 10 µg/mL
[9]; Enterobacter cloacae, strain ECLM1019, Enterobacter cloacae (VIM, KPC), carbapenem alone or + Compound 14 at fixed 4 μg/ml, read-out: MIC
  MIC: > 10 µg/mL
[9]; Escherichia coli, strain EC1064, Escherichia coli (NDM-1, CMY-6, CTX-M-15), carbapenem alone or + Compound 14 at fixed 4 μg/ml, read-out: MIC
  MIC: > 10 µg/mL
[9]; Escherichia coli, strain EC1068, Escherichia coli (VIM-1), carbapenem alone or + Compound 14 at fixed 4 μg/ml, read-out: MIC
  MIC: > 10 µg/mL
[9]; Klebsiella aerogenes, strain EA1019, Enterobacter aerogenes (SHV-5, VIM-1), carbapenem alone or + Compound 14 at fixed 4 μg/ml, read-out: MIC
  MIC: > 10 µg/mL
[9]; Klebsiella pneumoniae, strain KP1004, Klebsiella pneumoniae (KPC TEM SHV), carbapenem alone or + Compound 14 at fixed 4 μg/ml, read-out: MIC
  MIC: > 10 µg/mL
[9]; Klebsiella pneumoniae, strain KP1014, Klebsiella pneumoniae (Vim-1, TEM, SHV), carbapenem alone or + Compound 14 at fixed 4 μg/ml, read-out: MIC
  MIC: > 10 µg/mL
[9]; Klebsiella pneumoniae, strain KP1061, Klebsiella pneumoniae (KPC TEM SHV), carbapenem alone or + Compound 14 at fixed 4 μg/ml, read-out: MIC
  MIC: 1 to 10 µg/mL
[9]; Klebsiella pneumoniae, strain KP1064, Klebsiella pneumoniae (KPC TEM SHV), carbapenem alone or + Compound 14 at fixed 4 μg/ml, read-out: MIC
  MIC: > 10 µg/mL
[9]; Klebsiella pneumoniae, strain KP1070, Klebsiella pneumoniae (KPC TEM SHV), carbapenem alone or + Compound 14 at fixed 4 μg/ml, read-out: MIC
  MIC: > 10 µg/mL
[9]; Klebsiella pneumoniae, strain KP1084, Klebsiella pneumoniae (KPC-3, SHV-11, TEM-1), carbapenem alone or + Compound 14 at fixed 4 μg/ml, read-out: MIC
  MIC: > 10 µg/mL
[9]; Klebsiella pneumoniae, strain KP1097, Klebsiella pneumoniae (IMP-1 SHV), carbapenem alone or + Compound 14 at fixed 4 μg/ml, read-out: MIC
  MIC: > 10 µg/mL
[9]; Klebsiella pneumoniae, strain KP1098, Klebsiella pneumoniae (IMP-26 TEM SHV), carbapenem alone or + Compound 14 at fixed 4 μg/ml, read-out: MIC
  MIC: > 10 µg/mL
[9]; Klebsiella pneumoniae, strain KPM1097, Klebsiella pneumoniae (NDM, KPC), carbapenem alone or + Compound 14 at fixed 4 μg/ml, read-out: MIC
  MIC: > 10 µg/mL
[9]; Klebsiella pneumoniae, strain KPM1099, Klebsiella pneumoniae (NDM, KPC), carbapenem alone or + Compound 14 at fixed 4 μg/ml, read-out: MIC
  MIC: > 10 µg/mL
[9]; Klebsiella pneumoniae, strain KPM1107, Klebsiella pneumoniae (NDM, KPC), carbapenem alone or + Compound 14 at fixed 4 μg/ml, read-out: MIC
  MIC: > 10 µg/mL
[9]; Klebsiella pneumoniae, strain KPM1108, Klebsiella pneumoniae (NDM, KPC), carbapenem alone or + Compound 14 at fixed 4 μg/ml, read-out: MIC
  MIC: > 10 µg/mL
[9]; Klebsiella pneumoniae, strain KPM1123, Klebsiella pneumoniae (KPC-2 TEM SHV), carbapenem alone or + Compound 14 at fixed 4 μg/ml, read-out: MIC
  MIC: > 10 µg/mL
[9]; Klebsiella pneumoniae, strain KPM1344, Klebsiella pneumoniae (VIM-1), carbapenem alone or + Compound 14 at fixed 4 μg/ml, read-out: MIC
  MIC: > 10 µg/mL
[9]; Klebsiella pneumoniae, strain KPM1346, Klebsiella pneumoniae (NDM-1 TEM SHV CTX-M-15 CMY), carbapenem alone or + Compound 14 at fixed 4 μg/ml, read-out: MIC
  MIC: > 10 µg/mL
[9]; Klebsiella pneumoniae, strain KPM1347, Klebsiella pneumoniae (NDM-1 SHV CTX-M-15), carbapenem alone or + Compound 14 at fixed 4 μg/ml, read-out: MIC
  MIC: > 10 µg/mL
[9]; strain EC1065, Escherichai coli (IMP-1 CMY-2), carbapenem alone or + Compound 14 at fixed 4 μg/ml, read-out: MIC
  MIC: 1 to 10 µg/mL
KP1054 (VIM-1, SHV-11)
  Carbapenem MIC Alone: Z (MIC of greater than 10 μg/mL)
[10]
  Carbapenem MIC Alone: Z (MIC of greater than 10 μg/mL)
EA1019 (SHV-5, VIM-1); EA1019, antibiotic alone
  Carbapenem MIC Alone: Z (MIC of greater than 10 μg/mL)
[11]
  Carbapenem MIC Alone: Z (MIC of greater than 10 μg/mL)
[12]
  Carbapenem MIC Alone: Z (MIC of greater than 10 μg/mL)
[13]
  Carbapenem MIC Alone: Y (MIC of 1 μg/mL to 10 μg/mL)
